In patent publication US20110236406A1, “IMMUNOGENIC COMPOSITIONS COMPRISING HMGB1 POLYPEPTIDES” (MedImmune, LLC, priority 2004, published 2011):
No end group written: not given here. *: point of attachment. Biotin = O=C1N[C@H]2[C@H](CS[C@H]2CCCCC(=O)*)N1

Assays:
[1] = system: B box-induced DC maturation; assay: Signalling inhibitors on B box-induced CD83 upregulation and IL-6 secretion in DCs; type: cell-based, human; conditions: 30 min preincubation, then rB box 100 μg/ml, 48 h; SB203580 5 or 20 μM, PD98059 and TPCK 20 or 80 μM
Experimental: FIG. 6. B box causes […] upregulation and IL-6 secretion via a p38 dependent pathway. Immature d7 DCs were preincubated for 30 min with (i) DMSO, (ii) PD98059 at 20 (P20) or 80 (P80) μM, (iii) SB203580 at 5 (S5) or 20 (S20) μM, (iv) TPCK at 20 (T20) or 80 (T80) μM and then treated with rB box (100 μg/ml), or cultured with DMSO in the absence of B box (medium). 48 h after activation the DCs were assayed for the surface expression of CD83 by FACS and IL-6 secretion was measured by ELISA. The results shown are mean+/−SEM of three independent experiments using DCs generated from different donors.
The p38 MAPK-specific inhibitor, SB203580, a pyridinyl imidazole compound, the MEK inhibitor PD98059, and N-tosyl-L-phenylalanine chloromethyl ketone (TPCK) were purchased from Sigma. Because these required solubilization in DMSO, DMSO was used as a negative control.
To obtain insight into the roles of ERK and p38 MAPK pathways in B box-induced DC maturation, we used their specific inhibitors, PD98059 and SB203580, respectively. To analyze the role of NF-κB we used TPCK, a serine protease inhibitor that blocks nuclear translocation of Rel/NF-κB by preventing IκB degradation.

[2] = system: human monocyte-derived DCs; assay: Cytokine and chemokine secretion by human immature monocyte-derived DCs (ELISA); type: cell-based; parameters: key to TNFα / IL-18 / IL-8 / IL-10 / IL-6 / IL-12: + indicates increase; − indicates no change compared to medium
Experimental: (§1) PBMCs were isolated from the blood of normal volunteers (Long Island Blood Services, Melville, N.Y.) over a Ficoll-Hypaque (Amersham Biosciences, Uppsala, Sweden) density gradient. CD14^+ monocytes were isolated from PBMCs by positive selection using anti-CD14 beads (Miltenyi Biotech., Auburn, Calif.) following the manufacturer's instructions. To generate DCs, CD14^+ cells were cultured in RPMI 1640 medium supplemented with 2 mM L-glutamine (GIBCO-BRL Life Technologies; Grand Island, N.Y.), 50 μM 2-mercaptoethanol (Sigma, St. Louis, Mo.), 10 mM HEPES (GIBCO-BRL), penicillin (100 U/ml)-streptomycin (100 μg/ml) (GIBCO-BRL), and 5% human AB serum (Gemini Bio-Products, Woodland, Calif.). Cultures were maintained for 7 days in 6-well trays (3×10^6 cells/well) supplemented with 1000 U GM-CSF per ml (Immunex, Seattle, Wash.) and 200 U IL-4 per ml (R&D Systems; Minneapolis, Minn.) at days 0, 2, 4 and 6.
At day 7 of culture, immature DCs were either left untreated (“immature”, IM), or were stimulated with indicated doses of (i) LPS (E. coli serotype 026:B6, Sigma), (ii) 500 ng/ml of trimeric CD40L (Alexis Biochemicals; San Diego, Calif.), (iii) a cocktail of cytokines (CyC) consisting of IL-6 at 1000 U/ml, TNFα at 10 ng/ml, IL-1β at 10 ng/ml (all from R&D Systems) and prostaglandin E2 (PGE-2) at 1 μg/ml (Sigma), or with (v) non-methylated CpG oligonucleotides (5′ […] 3′) at 30 μg/ml. The sequence of this oligonucleotide is known to induce DC maturation (4), except that it contains an unmodified phosphodiester backbone. In all experiments, DCs were analyzed 48 h after stimulation. All experiments using the rB box were performed in the presence of polymyxin B sufficient to neutralize greater than 10-fold more LPS than present in rB box preparations.
(§2) 48 h post activation, the production of cytokines and chemokines in cell culture supernatants was measured by ELISA (Pierce Boston Technology Center, SearchLight™ Proteome Arrays Multiplex Sample Testing Services, Woburn, Mass.).
as §1, with “DCs, CD 14^+” for “DCs, CD14^+”
(§3) At day 7 of culture, immature DCs were either left untreated, or were stimulated with indicated doses of HMGB1-Bx, HMGB1 peptides, or LPS (E. coli serotype 026:B6, Sigma). In all experiments, DCs were analyzed 48 h after stimulation.

[3] = system: allogeneic T cells; assay: Mixed leukocyte reaction, stimulated murine BM-DCs with allogeneic T cells; type: cell-based, mouse; conditions: BM-DCs from C57/BL6 mice; HMGB1-Bx 50 μg/ml, peptides 200 μg/ml, 48 h; 5-day co-culture
Experimental: T cells were isolated by negative selection using the mouse SpinSep antibody cocktail from StemCell Technologies (Vancouver, Calif.) according to the manufacturer's instructions. The cell purity of the isolated T cells was routinely ˜99% pure.
To assess levels of T cell activation and proliferation, cells were plated at 10^5 cells per well in a round-bottomed 96-well tray at DC:T cell ratios of 1:120 for 5 days in medium described above. The microcultures were pulsed with (^3H)-thymidine (1 μCi/well) for the final 8 h of culture. Cell cultures were harvested onto glass fiber filters with an automated multiple sample harvester and the amount of isotope incorporation was determined by liquid scintillation β-emission. Responses are reported as mean cpm of thymidine incorporation by triplicate cultures (+/−SEM).

[4] = system: murine BM-DCs; assay: Phenotypic maturation of murine BM-DCs (surface markers, FACS); type: cell-based, mouse; conditions: CD11c+ gated BM-DCs, 48 h; HMGB1-Bx 50 μg/ml, peptides 200 μg/ml
Experimental: (§4) Bone marrow-derived DCs (BM-DC) were generated using modifications of the original method described by Inaba et al (42). In brief, bone marrow suspensions were incubated with red cell lysis buffer (PUREGENE™ RBC Lysis Solution, Gentra Systems, Minneapolis, Minn.) to remove red blood cells. After washing in media, lymphocytes and Ia-positive cells were killed with a cocktail of mAbs and rabbit complement for 60 min at 37° C. The mAbs were GK1.5 anti-CD4, TIB211 anti-CD8, TIB 120 anti-Ia, and TM 146 anti B220 (The Abs were kindly provided by Dr. Ralph Steinman). The cells were subsequently cultured in media containing 5% FCS and 10 ng/ml recombinant mouse GM-CSF (R&D Systems; Minneapolis, Minn.) for 7 days. For some experiments the cells were further purified at day 7 using CD11c^+-microbeads (Miltenyi Biotech., Auburn, Calif.) according to the manufacturer's instructions.
as §3
1×10^4 DCs were reacted for at least 20 min at 4° C. in 100 μl of PBS/5% FCS/0.1% sodium azide (staining buffer) with fluorescein isothiocyanate (FITC)-conjugated IgG mAb specific for CD86, CD40 and MHC-II (eBioscience). Cells were then washed 4 times with staining buffer, fixed in 10% formaldehyde in PBS (pH 7.2-7.4) and examined by flow cytometry using a FACScan (BD). In all experiments, isotype controls were included using FITC-conjugated irrelevant mAb of the same Ig class.

[5] = system: murine BM-DCs; assay: Cytokine and chemokine secretion by murine bone marrow-derived DCs (ELISA); type: cell-based, mouse; parameters: key to TNFα / IL-18 / IL-8 / IL-10 / IL-2 / IL-1β / IL-5 / IL-6 / IL-12: + indicates increase; − indicates no change compared to medium
Experimental: as §4, §3, §2

[6] = HUMAN DC, ELISA 48 h after exposure, compared to medium
[7] = Murine DC, ELISA 48 h after exposure, compared to medium
[8] = peptides 200 μg/ml, HMGB1-Bx 50 μg/ml, polymyxin B, 48 h

For `C[S+]([O-])c1ccc(-c2nc(-c3ccncc3)c(-c3ccc(F)cc3)[nH]2)cc1` (stereo not shown) [SB203580], the “B box induced secretion of IL-6” value [1] was “downregulated” and the “B box-induced upregulation of CD83” value [1] was “completely abrogated”.
“YAFFVQTCREEHKKKHPD (Biotin-YAFFVQTCREEHKKKHPD; listed as Homo sapiens) [Hp-16]” was tested, and the “activation of human DCs” value ([2]; Example 2, peptides 200 μg/ml, 48 h) was “no effect”, the IL-6 [2, 6] was “−” and the IL-8 [2, 6] was “−”. The IL-10 [2, 6] was “−”, the IL-12 [2, 6] was “−” and the IL-18 [2, 6] was “−”. The TNFα [2, 6] was “−”, the “T cell stimulatory activity of exposed BM-DCs in mixed lymphocyte reaction” value [3] was “activated resting allogeneic T cells” and the CD40 expression [4] was “strong upregulation”. The CD86 expression [4] was “strong upregulation”, the MHC-II expression [4] was “strong upregulation” and the IL-1β [5, 7] was “+”. For the same compound, the IL-2 [5, 7] was “+”, the IL-5 [5, 7] was “+” and the IL-6 [5, 7] was “−”. The IL-8 [5, 7] was “−”, the IL-10 [5, 7] was “−” and the IL-12 [5, 7] was “+”. The IL-18 [5, 7] was “+”, the TNFα [5, 7] was “−” and the “activation of murine BM-DCs” value ([5]; peptides 200 μg/ml, 48 h) was “activated”. The “secretion of IL-2” value [5, 8] was “enhanced secretion”, the “secretion of IL-5” value [5, 8] was “enhanced secretion” and the “secretion of IL-12 (p70)” value [5, 8] was “enhanced secretion”. For the same compound, the “secretion of IL-18” value [5, 8] was “enhanced secretion” and the “secretion of IL-10” value ([5]; peptides 200 μg/ml, polymyxin B, 48 h) was “enhanced secretion”.
